Laboratory results taken from PubChem BioAssay AID220 (DTP/NCI, 2004).
“And” between values parts separate entries of the source, which are not always exact repeats. Equal values may be shown once. Inconclusive results are not listed.

Test system: CD8F1 mice, subcutaneous mammary adenocarcinoma, T/C%
Test: NCI In Vivo Anticancer Drug Screen. Data for tumor model Mammary Adenocarcinoma CD8F1 (subcutaneous) in CD8F1
Details: higher = larger tumour
Outline: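 Transplantable tumors were established in mice, animals were dosed with compound or vehicle, and survival or tumor size was then measured in both groups. The treated result was divided by the control result.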

[1] = endpoint: median tumor weight (est.), dose: 100.0 mg/kg/injection, schedule: Q07DX005 (ip), vehicle: suspension in saline

Question: What does the source list for O=NN(CCCl)C(=O)NCCCl?
Answer: T/C (endpoint: mean tumor weight (est.), dose: 7.5 mg/kg/injection, schedule: Q07DX003 (ip), vehicle: saline + alcohol): 58 % of control; T/C (endpoint: mean tumor weight (est.), dose: 12.5 mg/kg/injection, schedule: Q07DX003 (ip), vehicle: saline + alcohol): 46 % of control; T/C (endpoint: mean tumor weight (est.), dose: 15.0 mg/kg/injection, schedule: Q07DX003 (ip), vehicle: saline + alcohol): 34 % of control; T/C (endpoint: mean tumor weight, dose: 1.5 mg/kg/injection, schedule: Q01DX009 (ip), vehicle: saline): 52 % of control; T/C (endpoint: mean tumor weight, dose: 3.0 mg/kg/injection, schedule: Q01DX009 (ip), vehicle: saline): 54 % of control; T/C (endpoint: mean tumor weight, dose: 3.75 mg/kg/injection, schedule: Q07DX007 (ip), vehicle: saline + alcohol): 113 % of control; T/C (endpoint: mean tumor weight, dose: 6.25 mg/kg/injection, schedule: Q01DX009 (ip), vehicle: saline): 26 % of control and 29 % of control; T/C (endpoint: mean tumor weight, dose: 7.5 mg/kg/injection, schedule: Q07DX006 (ip), vehicle: saline + alcohol): 62 % of control; T/C (endpoint: mean tumor weight, dose: 7.5 mg/kg/injection, schedule: Q07DX007 (ip), vehicle: saline + alcohol): 77 % of control; T/C (endpoint: mean tumor weight, dose: 12.5 mg/kg/injection, schedule: Q07DX006 (ip), vehicle: saline + alcohol): 33 % of control; T/C (endpoint: mean tumor weight, dose: 12.5 mg/kg/injection, schedule: Q07DX006 (ip), vehicle: saline): 5 % of control; T/C (endpoint: mean tumor weight, dose: 15.0 mg/kg/injection, schedule: Q07DX006 (ip), vehicle: saline + alcohol): 4 % of control; T/C (endpoint: mean tumor weight, dose: 15.0 mg/kg/injection, schedule: Q07DX007 (ip), vehicle: saline + alcohol): 60 % of control; T/C (endpoint: median tumor weight (est.), dose: 1.5 mg/kg/injection, schedule: Q01DX005 (ip), vehicle: saline with Tween-80): 49 % of control; T/C (endpoint: median tumor weight (est.), dose: 2.0 mg/kg/injection, schedule: Q04DX005 (ip), vehicle: saline with Tween-80): 99 % of control; T/C (endpoint: median tumor weight (est.), dose: 2.0 mg/kg/injection, schedule: Q07DX005 (ip), vehicle: saline with Tween-80): 40 % of control and 56 % of control and 65 % of control; T/C (endpoint: median tumor weight (est.), dose: 3.0 mg/kg/injection, schedule: Q01DX005 (ip), vehicle: saline with Tween-80): 69 % of control; T/C (endpoint: median tumor weight (est.), dose: 4.0 mg/kg/injection, schedule: Q04DX005 (ip), vehicle: saline with Tween-80): 44 % of control; T/C (endpoint: median tumor weight (est.), dose: 6.0 mg/kg/injection, schedule: Q01DX005 (ip), vehicle: saline with Tween-80): 29 % of control; T/C (endpoint: median tumor weight (est.), dose: 8.0 mg/kg/injection, schedule: Q04DX005 (ip), vehicle: saline with Tween-80): 10 % of control; T/C (endpoint: median tumor weight (est.), dose: 8.0 mg/kg/injection, schedule: Q07DX005 (ip), vehicle: saline with Tween-80): 27 % of control and 35 % of control and 38 % of control; T/C (endpoint: median tumor weight (est.), dose: 12.0 mg/kg/injection, schedule: Q01DX005 (ip), vehicle: saline with Tween-80): 2 % of control; T/C (endpoint: median tumor weight (est.), dose: 16.0 mg/kg/injection, schedule: Q04DX005 (ip), vehicle: saline with Tween-80): 5 % of control; T/C (endpoint: median tumor weight (est.), dose: 16.0 mg/kg/injection, schedule: Q07DX005 (ip), vehicle: saline with Tween-80): 1 % of control and 2 % of control and 18 % of control; T/C (endpoint: median tumor weight change, dose: 7.81 mg/kg/injection, schedule: Q01DX001 (ip), vehicle: saline + alcohol): 70 % of control; T/C (endpoint: median tumor weight change, dose: 8.0 mg/kg/injection, schedule: Q01DX001 (ip), vehicle: saline + alcohol): 32 % of control; T/C (endpoint: median tumor weight change, dose: 15.62 mg/kg/injection, schedule: Q01DX001 (ip), vehicle: saline + alcohol): 40 % of control; T/C (endpoint: median tumor weight change, dose: 15.62 mg/kg/injection, schedule: Q01DX001 (ip), vehicle: saline with Tween-80): 55 % of control; T/C (endpoint: median tumor weight change, dose: 16.0 mg/kg/injection, schedule: Q01DX001 (ip), vehicle: saline + alcohol): 31 % of control; T/C (endpoint: median tumor weight change, dose: 31.0 mg/kg/injection, schedule: Q01DX001 (ip), vehicle: saline + alcohol): 23 % of control; T/C (endpoint: median tumor weight change, dose: 31.25 mg/kg/injection, schedule: Q01DX001 (ip), vehicle: saline + alcohol): 31 % of control; T/C (endpoint: median tumor weight change, dose: 31.25 mg/kg/injection, schedule: Q01DX001 (ip), vehicle: saline with Tween-80): 20 % of control; T/C (endpoint: median tumor weight change, dose: 62.0 mg/kg/injection, schedule: Q01DX001 (ip), vehicle: saline + alcohol): -31 % of control; T/C (endpoint: median tumor weight change, dose: 62.5 mg/kg/injection, schedule: Q01DX001 (ip), vehicle: saline + alcohol): 17 % of control; T/C (endpoint: median tumor weight change, dose: 125.0 mg/kg/injection, schedule: Q01DX001 (ip), vehicle: saline + alcohol): -39 % of control

Question: How did the T/C (endpoint: mean tumor weight, dose: 4.0 mg/kg/injection, schedule: Q07DX007 (ip), vehicle: Klucel (hydroxypropylcellulose) (HPC)) turn out when CC(C)NCC(O)COc1cccc2ccccc12 (centres undefined) was run?
Answer: 61 % of control

Question: What about the T/C (endpoint: mean tumor weight, dose: 8.0 mg/kg/injection, schedule: Q07DX007 (ip), vehicle: Klucel (hydroxypropylcellulose) (HPC)) of the same molecule?
Answer: 92 % of control

Question: What about the T/C (endpoint: mean tumor weight, dose: 32.0 mg/kg/injection, schedule: Q07DX007 (ip), vehicle: Klucel (hydroxypropylcellulose) (HPC)) of the same molecule?
Answer: 88 % of control

Question: And the T/C (endpoint: mean tumor weight, dose: 64.0 mg/kg/injection, schedule: Q07DX007 (ip), vehicle: Klucel (hydroxypropylcellulose) (HPC))?
Answer: 43 % of control

Question: What does the source list for CC(C)=CCNc1ncnc2c1ncn2C1OC(CO)C(O)C1O (centres undefined)?
Answer: T/C (endpoint: median tumor weight (est.), dose: 12.5 mg/kg/injection, schedule: Q07DX005 (ip), vehicle: saline with Tween-80): 78 % of control; T/C (endpoint: median tumor weight (est.), dose: 25.0 mg/kg/injection, schedule: Q07DX005 (ip), vehicle: saline with Tween-80): 84 % of control; T/C (endpoint: median tumor weight (est.), dose: 50.0 mg/kg/injection, schedule: Q07DX005 (ip), vehicle: saline with Tween-80): 113 % of control; T/C (endpoint: median tumor weight (est.), dose: 100.0 mg/kg/injection, schedule: Q07DX005 (ip), vehicle: saline with Tween-80): 85 % of control; T/C (endpoint: median tumor weight (est.), dose: 200.0 mg/kg/injection, schedule: Q07DX005 (ip), vehicle: saline with Tween-80): 82 % of control

Question: How did the T/C (endpoint: median tumor weight (est.), dose: 12.5 mg/kg/injection, schedule: Q07DX005 (ip), vehicle: suspension in saline) turn out when c1ccc(CN2CCOC2)cc1 was run?
Answer: 51 % of control

Question: And the T/C (endpoint: median tumor weight (est.), dose: 25.0 mg/kg/injection, schedule: Q07DX005 (ip), vehicle: suspension in saline)?
Answer: 43 % of control

Question: What about the T/C (endpoint: median tumor weight (est.), dose: 50.0 mg/kg/injection, schedule: Q07DX005 (ip), vehicle: suspension in saline) of the same molecule?
Answer: 62 % of control

Question: And the T/C [1]?
Answer: 87 % of control

Question: Which T/C [1] does the source give for COc1cc2cc3c4cc(OC)c(OC)cc4cc[n+]3c(C)c2cc1OC (tested in a mixture with another compound) here?
Answer: 97 % of control
